Laboratory results as given in PubChem BioAssay AID608 (Sanford-Burnham Center for Chemical Genomics, 2007).
Active and inactive are the calls of the source. How the calls were made is not given here.

These compounds were tested against Peptidyl-prolyl cis-trans isomerase FKBP1A (Homo sapiens) (UniProt P62942) (assay: FKBP12 binders, biophysical, NMR detection (AID 608)). Settings: NMR binding, purified FKBP12.
Sequence of Peptidyl-prolyl cis-trans isomerase FKBP1A (Homo sapiens) (P62942 whole entry, looked up): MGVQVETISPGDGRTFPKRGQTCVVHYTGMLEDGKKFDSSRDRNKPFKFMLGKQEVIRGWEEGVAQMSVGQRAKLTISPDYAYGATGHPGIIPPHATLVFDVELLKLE

Compound | Kd
O=C(C(Sc1ccccc1)c1ccccc1)N1CCOCC1 (stereo unspecified) | 0.146 mM
O=c1ccn(Cc2ccccc2)c(=O)n1Cc1ccccc1 | > 4 mM (inactive)
Cc1cn2c(-c3cccnc3)nnc2s1 | > 4 mM (inactive)
Cc1nn(-c2ccccc2)nc1C(N)=O | > 4 mM (inactive)
COc1ccc2c(=O)c(OC)c(-c3ccccc3)oc2c1 | > 4 mM (inactive)
O=S1(=O)C=C(Nc2ccccc2)CC1 | 0.135 mM
COc1cc2c(cc1O)CCNC2C (stereo unspecified) | > 4 mM (inactive)
CC(=O)Nc1cccc(NC(=O)c2cccnc2)c1 | > 4 mM (inactive)
O=C(O)CCCC(=O)Nc1nccs1 | > 4 mM (inactive)
CC(=O)O[C@@H]1CC2C(C)(C)C(=O)[C@@H]3O[C@@H]3[C@]2(C)C2CC[C@]3(C)C(=CC(=O)O[C@H]3c3ccoc3)[C@@]21C (stereo partly specified) | > 4 mM (inactive)
Nc1ccc2c(c1)S(=O)(=O)C=C2 | > 4 mM (inactive)
CN1CCN(C(=O)/C=C\C(=O)O)CC1 | > 4 mM (inactive)
COc1cc2c(cc1O)[C@@H](Cc1ccc(O)cc1)[N+](C)(C)CC2 | > 4 mM (inactive)
O=C(Nc1nc2c(s1)CCCC2)c1cccnc1 | > 4 mM (inactive)
COc1cc2c(cc1OC)C1(O)C(=O)c3ccc(O)c(C(=O)O)c3OC1CO2 (stereo unspecified) | > 4 mM (inactive)
O=S(=O)(Nc1ccc2c(c1)OCCO2)c1cccs1 | > 4 mM (inactive)
Cc1ccc2cc(C(=O)O)ccc2n1 | > 4 mM (inactive)
Cc1nc(-c2cccc(-c3noc(C)n3)c2)no1 | > 4 mM (inactive)
CC(Sc1ncn[nH]1)C(=O)O (stereo unspecified) | > 4 mM (inactive)
Cc1ccc(N2C(=O)CC(Sc3ncn[nH]3)C2=O)cc1 (stereo unspecified) | > 4 mM (inactive)
CC(=O)c1c(C)n(O)c2ccc3nonc3c12 | > 4 mM (inactive)
OCc1ccc2ncccc2c1 | > 4 mM (inactive)
[O-][n+]1onc2c1CCc1c-2nn(-c2ccccc2)[n+]1[O-] | > 4 mM (inactive)
Cc1cc(=O)[nH]c(N2CCCCC2)n1 | > 4 mM (inactive)

Compound | Kd
CCC1C(=O)OCC1Cc1cncn1C (stereo unspecified) | > 4 mM (inactive)
COc1cc(O)c(C(=O)c2ccccc2)cc1O | > 4 mM (inactive)
C=CCSc1[nH]c(=O)cc(C)c1C(N)=O | > 4 mM (inactive)
CCN1CCC2(CC1)CC1CC3C=CC1(CN2C(C)=O)O3 (stereo unspecified) | > 4 mM (inactive)
O=C(c1ccco1)N1C(=O)c2cccc3cccc1c23 | > 4 mM (inactive)
Clc1ccccc1OCCn1ccnc1 | > 4 mM (inactive)
COc1c2ccccc2nc2occc12 | > 4 mM (inactive)
COC(=O)Cc1cc(=O)n(-c2ccccc2)[nH]1 | > 4 mM (inactive)
Cc1ccccc1C(=O)Nc1cccc(N)c1 | > 4 mM (inactive)
COc1ccccc1/C=C\C(=O)O | > 4 mM (inactive)
Cc1ncc(C(=O)O)c(-c2ccccc2)n1 | > 4 mM (inactive)
Clc1ccccc1OCc1nc(-c2ccncc2)no1 | > 4 mM (inactive)
COc1ccc(NC(=O)N2CCCCC2)cc1 | > 4 mM (inactive)
COc1ccc(-c2oc3c(CC=C(C)C)c(O[C@@H]4O[C@H](CO)[C@@H](O)[C@H](O)[C@H]4O)cc(O)c3c(=O)c2O[C@@H]2O[C@@H](C)[C@H](O)[C@@H](O)[C@H]2O)cc1 | > 4 mM (inactive)
O=C(Nc1ccon1)c1ccccc1Cl | > 4 mM (inactive)
Cn1c(SCC(N)=O)nnc1-c1c[nH]c2ccccc12 | > 4 mM (inactive)
CN(C(N)=O)C1(C)CCS(=O)(=O)C1 (stereo unspecified) | > 4 mM (inactive)
c1ccc2c(c1)nnn2C1CCNCC1 | > 4 mM (inactive)
CC1/C(=N/O)C[C@@H]2C[C@H]1C2(C)C (stereo partly specified) | > 4 mM (inactive)
N#Cc1nc(-c2cccs2)oc1N1CCOCC1 | > 4 mM (inactive)
COc1cc(O)c2c(=O)cc(-c3ccc(OC)c(-c4c(O)cc(O)c5c(=O)cc(-c6ccc(O)cc6)oc45)c3)oc2c1 | > 4 mM (inactive)
O=C(O)CS(=O)(=O)c1ccccc1[N+](=O)[O-] | > 4 mM (inactive)
O=C(O)c1ccc(-c2ccccn2)s1 | > 4 mM (inactive)
CC(NC(=O)c1ccco1)c1ccc2c(c1)OCCO2 (stereo unspecified) | > 4 mM (inactive)

Compound | Kd
CN(C)C(=O)CCNS(=O)(=O)c1ccccc1 | > 4 mM (inactive)
O=C(O)c1coc2c1C(=O)CCC2 | > 4 mM (inactive)
O=C(O)c1cc2ccccc2[nH]1 | > 4 mM (inactive)
Cn1cccc1C=C1C(=O)NC(=S)NC1=O | > 4 mM (inactive)
NS(=O)(=O)c1ccc(NC(=O)C2CC2)cc1 | > 4 mM (inactive)
O=C(c1cnsn1)N1CCN(c2ccccn2)CC1 | > 4 mM (inactive)
O=C(O)c1ccc2occc2c1 | > 4 mM (inactive)
CC(=O)c1c(O)cc(O)cc1O | > 4 mM (inactive)
O=c1c(O)c(-c2ccccc2)oc2cc(O)ccc12 | > 4 mM (inactive)
COc1cc(C(C)=O)ccc1OC(=O)N1CCOCC1 | > 4 mM (inactive)
CC(=O)N(c1ccccc1)C1C=CS(=O)(=O)C1 (stereo unspecified) | > 4 mM (inactive)
NC(=O)c1ccccc1NC(=O)c1cccnc1 | > 4 mM (inactive)
Cn1cnnc1SCC(=O)Nc1ccccc1 | > 4 mM (inactive)
O=C(CN1C(=O)CCC1=O)c1ccccc1 | > 4 mM (inactive)
c1ccc(CCc2nc(-c3ccncc3)no2)cc1 | > 4 mM (inactive)
O=C(O)c1csc(-c2ccccc2)n1 | > 4 mM (inactive)
CCCCCCCCCCCC[C@H](C(=O)O)[C@@H](C)C(=O)O | > 4 mM (inactive)
Nc1ccc(-n2cncn2)cc1 | > 4 mM (inactive)
CC(=O)NCS(=O)(=O)c1ccc(C)cc1 | > 4 mM (inactive)
Cc1oc(-c2ccccc2)nc1CC(=O)O | > 4 mM (inactive)
COc1cc2nc(N3CCNCC3)nc(N)c2cc1OC | > 4 mM (inactive)
O=C1NC(=S)N/C1=C\c1cccc([N+](=O)[O-])c1 | > 4 mM (inactive)
O=C1C=C(O)c2ccccc2C1=O | > 4 mM (inactive)
Cc1sc(CCc2nc(-c3ccccc3)c(C)s2)nc1-c1ccccc1 | inactive

Compound | Kd
CSc1nnc2[nH]c(=O)cc(N)n12 | > 4 mM (inactive)
COC(=O)c1cccnc1Oc1ccccc1 | > 4 mM (inactive)
N#Cc1cccc(Cn2nnc(-c3ccccc3)n2)c1 | > 4 mM (inactive)
Nc1nc2ccc(C(=O)O)cc2s1 | > 4 mM (inactive)
Cc1ccccc1NC(=O)N1CCOCC1 | > 4 mM (inactive)
OCc1c[nH]c2ccccc12 | > 4 mM (inactive)
C[C@H]1OC(O[C@H]2[C@@H](O)CC(O[C@H]3[C@@H](O)C[C@H](O[C@H]4CC[C@]5(C)C6CC[C@]7(C)[C@@H](C8=CC(=O)OC8)[C@@H](O)C[C@]7(O)[C@@H]6CC[C@@H]5C4)O[C@@H]3C)O[C@@H]2C)C[C@H](O)C1O (stereo partly specified) | > 4 mM (inactive)
CCC(C)OC1CCS(=O)(=O)C1 (stereo unspecified) | > 4 mM (inactive)
CN(C)S(=O)(=O)Nc1ccc(Br)cc1F | > 4 mM (inactive)
CC(=O)N1CN(C(C)=O)CN(C(C)=O)C1 | > 4 mM (inactive)
CC(=O)O[C@H]1C[C@@H](OC(C)=O)C(C)(C)C2C[C@@H](OC(C)=O)[C@@]3(C)C4=CC(=O)O[C@@H](c5ccoc5)[C@]4(C)CCC3[C@]21C (stereo partly specified) | > 4 mM (inactive)
O=C1NC(=S)NC(=O)C1=Cc1ccco1 | > 4 mM (inactive)
O=C(NCCO)NC(=S)c1ccccc1 | > 4 mM (inactive)
O=C(Nn1cnnc1)c1cc2c(s1)CCCCC2 | > 4 mM (inactive)
CC(=O)O[C@H]1C(=O)[C@@]2(C)C([C@H](OC(=O)c3ccccc3)[C@]3(O)C[C@H](OC(=O)[C@H](O)[C@@H](NC(=O)c4ccccc4)c4ccccc4)C(C)=C1C3(C)C)[C@]1(OC(C)=O)CO[C@@H]1C[C@@H]2O (stereo partly specified) | > 4 mM (inactive)
COCC(=O)OCn1nnc2ccccc2c1=O | > 4 mM (inactive)
CC1=NN(c2ccc(C)cc2)C(=O)C1 | > 4 mM (inactive)
COc1ccc(C(=O)/C=C/c2ccccc2)cc1 | > 4 mM (inactive)
Oc1cc(O)c2c(c1)O[C@H](c1ccc(O)c(O)c1)[C@H](O)C2 | > 4 mM (inactive)
Cc1cc(C)n(S(=O)(=O)c2ccc(C)c(C)c2C)n1 | > 4 mM (inactive)
COc1ccccc1Nc1nncc(=O)[nH]1 | > 4 mM (inactive)
CC(=O)c1cccc(NC(=O)C=C(C)C)c1 | > 4 mM (inactive)
N#CCSc1nc(-c2ccccc2)cs1 | > 4 mM (inactive)
Cn1c(=O)n(CC(=O)N2CCOCC2)c2ccccc21 | > 4 mM (inactive)

Compound | Kd
CC(=O)Nc1ccc(Nc2nnc(C)c(=O)[nH]2)cc1 | > 4 mM (inactive)
Oc1ccc(-c2n[nH]c(=S)n2Cc2ccco2)cc1 | > 4 mM (inactive)
COc1ccccc1-c1c(C)nn2c(C)c(C(C)=O)cnc12 | > 4 mM (inactive)
CC(=O)c1c(C)n([O-])c2ccccc2[n+]1=O | > 4 mM (inactive)
COc1ccc2c(c1OC)OC[C@@H](c1ccc(OC)c(OC)c1OC)C2 | > 4 mM (inactive)
CSc1ccccc1NC(=O)c1ccco1 | > 4 mM (inactive)
O=C1c2cccnc2C(=O)N1Cc1ccco1 | > 4 mM (inactive)
O=C(Nc1ccccc1)Nc1ccccc1 | > 4 mM (inactive)
Cc1ccc(C)n1NC(=O)c1cccs1 | > 4 mM (inactive)
CN1CCC(N(C)Cc2cccnc2)CC1 | > 4 mM (inactive)
Cc1nc(-c2ccc(C(=O)O)s2)cs1 | > 4 mM (inactive)
CSc1nnc2ccc(-c3cccnc3)nn12 | > 4 mM (inactive)
COc1ccc2c(c1)CCCN2C(N)=O | > 4 mM (inactive)
O=C(c1nc2ncccn2n1)N1CCc2ccccc2C1 | > 4 mM (inactive)
CC(=O)Oc1cc(OC(C)=O)c2c(c1)O[C@H](c1ccc(OC(C)=O)c(OC(C)=O)c1)[C@H](OC(C)=O)C2 | > 4 mM (inactive)
O=C(O)CNC(=O)c1ccccc1 | > 4 mM (inactive)
CC(C)=CCc1c(O)cc2oc(C)cc(=O)c2c1O | > 4 mM (inactive)
Cc1ccc(C(=O)Nn2cnnc2)s1 | > 4 mM (inactive)
Cc1ccc(C)c(C(=O)n2cnnc2N)c1 | > 4 mM (inactive)
Cc1cc(C)c(-c2cc(C(F)(F)F)no2)c(=O)[nH]1 | > 4 mM (inactive)
